Measurements taken from paper PMC5602572, “New carboxamide derivatives bearing benzenesulphonamide as a selective COX-II inhibitor: Design, synthesis and structure-activity relationship” (PLoS ONE, 2017).
Like-named read-outs stand apart in the source and are kept apart here.

Columns and labels:
[1] = biological target: T1, COX-1 (Ovis aries, UniProt P05979); assay: In vitro cyclooxygenase inhibitory assay (Cayman colorimetric COX (ovine) inhibitor screening kit), COX-1; format: biochemical; details: read-out: COX-1 (%) inhibition
T1 construct: purchased Cayman chemicals, USA
T1 sequence (P05979 25-600): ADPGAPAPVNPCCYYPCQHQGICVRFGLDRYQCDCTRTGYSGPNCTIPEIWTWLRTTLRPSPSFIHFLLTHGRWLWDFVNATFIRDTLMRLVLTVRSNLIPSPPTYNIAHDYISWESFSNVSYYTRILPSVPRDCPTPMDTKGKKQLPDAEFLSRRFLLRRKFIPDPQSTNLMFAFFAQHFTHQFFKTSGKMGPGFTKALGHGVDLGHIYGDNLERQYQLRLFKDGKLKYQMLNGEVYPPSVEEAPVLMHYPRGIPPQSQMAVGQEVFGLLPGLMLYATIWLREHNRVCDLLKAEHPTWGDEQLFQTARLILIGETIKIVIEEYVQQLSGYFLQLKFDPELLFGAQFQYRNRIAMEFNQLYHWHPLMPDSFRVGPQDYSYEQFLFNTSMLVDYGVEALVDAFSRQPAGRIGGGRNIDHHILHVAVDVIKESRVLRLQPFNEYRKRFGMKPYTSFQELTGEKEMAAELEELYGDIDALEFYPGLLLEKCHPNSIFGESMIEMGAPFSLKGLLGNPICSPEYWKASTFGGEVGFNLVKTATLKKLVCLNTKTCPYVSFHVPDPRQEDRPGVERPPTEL
Method: (§1) The calculations were performed as per the kit guidelines.

[2] = system: carrageenan induced rat paw edema; assay: carrageenan-induced rat paw edema bioassay; format: in vivo; details: % inhibition of carrageenan induced rat paw edema, intraperitoneal; for Anti-inflammatory activity, 0.5 h (%): 0.5 h after treatment; for Anti-inflammatory activity, 1 h (%): 1 h after treatment; for Anti-inflammatory activity, 2 h (%): 2 h after treatment; for Anti-inflammatory activity, 3 h (%): 3 h after treatment
Method: Male albino rats weighing 300 g where purchased from the Department of Zoology and Environmental Biology, University of Nigeria, Nsukka and kept at room temperature in a light controlled animal house. They were fasted with free access to water at least 12 h prior to the experiments. […] The positive control received celecoxib while the negative control received only the vehicle. Edema was produced by injecting 0.2 mL of a solution of 1% carrageenan in the hind paw. The rats were injected intraperitoneally with 1 mL suspension in 0.5% methylcellulose of the tested compounds and reference drug. Paw volume was measured by water displacement with a plethysmometer (UGO BASILE) before, 30 min, 1 h, 2 h and 3 h after treatment. The percentage was calculated by the following equation [25].
Anti-inflammatory activity (%) = (1-D/C)[…], where D represents the difference in paw volume before and after drug administration to the rats and C represents the difference of volume in the control groups. The approval for the use of animal was obtained from the University of Nigeria committee on experimental animal use. No sign of death was observed during the experiment.

[3] = biological target: T2, COX-2 (Ovis aries, UniProt P79208); assay: In vitro cyclooxygenase inhibitory assay (Cayman colorimetric COX (ovine) inhibitor screening kit), COX-2; format: biochemical; details: for inhibition at 2 µM: read-out: COX-2 (%) inhibition; for selectivity for COX-2 (in words): from COX-2/COX-1 % inhibition at 2.0 μM; for S I (selectivity COX-2/COX-1): ratio of % inhibition COX-2/COX-1 at 2.0 μM
T2 construct: purchased Cayman chemicals, USA
T2 sequence (P79208 17-603): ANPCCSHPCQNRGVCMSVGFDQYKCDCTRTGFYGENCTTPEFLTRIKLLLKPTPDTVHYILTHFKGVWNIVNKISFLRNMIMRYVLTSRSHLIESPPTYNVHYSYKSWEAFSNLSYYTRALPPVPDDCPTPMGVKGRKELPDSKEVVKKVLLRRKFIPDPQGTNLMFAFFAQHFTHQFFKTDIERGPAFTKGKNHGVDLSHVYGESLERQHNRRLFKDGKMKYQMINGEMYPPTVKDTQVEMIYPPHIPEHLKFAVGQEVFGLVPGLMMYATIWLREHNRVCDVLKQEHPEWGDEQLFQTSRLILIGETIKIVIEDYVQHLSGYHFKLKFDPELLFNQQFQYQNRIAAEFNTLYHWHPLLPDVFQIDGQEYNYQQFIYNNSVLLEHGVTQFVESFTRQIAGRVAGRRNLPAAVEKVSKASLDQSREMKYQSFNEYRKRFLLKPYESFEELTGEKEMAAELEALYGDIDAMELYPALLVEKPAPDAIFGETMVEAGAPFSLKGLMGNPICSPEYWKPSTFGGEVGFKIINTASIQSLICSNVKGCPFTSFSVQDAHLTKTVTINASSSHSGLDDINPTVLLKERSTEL
Method: as §1

[4] = Determination of LD50 in mice; details: mouse, in vivo, ip; male mice, intraperitoneal, observation 72 h
Method: Male mice were divided into various groups and test compounds were administered in various doses intraperitoneally. […] All behavioral changes and deaths during the observation periods were recorded. The percentage of death at each dose level was then calculated, converted to probits and the LD50 (μM/kg) values were calculated. To observe the health status of the mice, they were monitored 4 times a day. […] For the purpose of ameliorating the suffering of the dying mice, CO2 euthanasia was applied. All the dead mice were disposed in bio-safety containers in accordance with local standard protocols. The mortality rate in each group was calculated according to the formula: Mortality rate(%)=(the number of dead mice/the number of mice in the group)×100.

SMILES	inhibition at 2 µM ([1]; concentration of 2.0 μM)	Anti-inflammatory activity, 0.5 h (%) [2]	Anti-inflammatory activity, 1 h (%) [2]	Anti-inflammatory activity, 2 h (%) [2]	Anti-inflammatory activity, 3 h (%) [2]	inhibition at 2 µM ([3]; concentration of 2.0 μM)	selectivity for COX-2 (in words) [3]	S I (selectivity COX-2/COX-1) [3]	LD50 at 72 h [4]	inhibition at 2 µM [1]	inhibition at 2 µM [3]
Cc1ccc(S(=O)(=O)N(C(=O)c2ccccc2)[C@@H](CC(C)C)C(=O)Nc2cc(C)ccn2)cc1 [Compound 7l, (2S)-4-Methyl-2-[N-(4-methylbenzenesulfonyl)-1-phenylformamido]-N-(4-methylpyridin-2-yl) pentanamide]	20%	26.15%	19.88%	18.28%	16.67%	19%	non-selective	0.95	12.5 µmol/kg	–	–
CCC(C)[C@@H](C(=O)Nc1cc(C)ccn1)N(C(=O)c1ccccc1)S(=O)(=O)c1ccc(C)cc1 (stereo partly drawn) [Compound 7m, (2S)-3-Methyl-2-[N-(4-methylbenzenesulfonyl)-1-phenylformamido]-N-(4-methylpyridin-2-yl) pentanamide]	17%	13.85%	12.35%	8.59%	8.58%	25%	non-selective	1.47	11.9 µmol/kg	–	–
Cc1ccc(S(=O)(=O)N(C(=O)c2ccccc2)[C@H](C(=O)Nc2cc(C)ccn2)C(C)C)cc1 [Compound 7n, (2S)-3-Methyl-2-[N-(4-methylbenzenesulfonyl)-1-phenylformamido]-N-(4-methylpyridin-2-yl) butanamide]	32%	21.54%	16.47%	10.56%	3.09%	48%	non-selective	1.50	20.1 µmol/kg	–	–
Cc1ccc(S(=O)(=O)N2CC(O)C[C@H]2C(=O)Nc2cc(C)ccn2)cc1 (stereo partly drawn) [Compound 7o, (2S)-4-Hydroxy-1-(4-methylbenzenesulfonyl)-N-(4-methylpyridin-2-yl)pyrrolidine-2-carboxamide]	–	21.54%	11.23%	8.78%	5.56%	–	–	–	10.1 µmol/kg	6%	18%
Cc1ccc(S(=O)(=O)N2CCC[C@H]2C(=O)Nc2cc(C)ccn2)cc1 [Compound 7p, (2S)-1-(4-Methylbenzenesulfonyl)-N-(4-methylpyridin-2-yl)pyrrolidine-2-carboxamide]	–	29.15%	28.24%	30.34%	33.26%	–	–	–	9.9 µmol/kg	8%	20%
